Structures can show the parent of a compound that is named as a salt.
Each molecule was assayed against Bile salt export pump (Homo sapiens, UniProt O95342).
Type: ADME

Row | Molecule | IC50 [µM]
1 | O=c1[nH]c2c(O)ccc(CCNCCCS(=O)(=O)CCCOCCc3ccccc3)c2s1 | 32.4
2 | CCCCOc1cc(C(=O)NCCN(CC)CC)c2ccccc2n1 [DIBUCAINE] | 41.7
3 | NS(=O)(=O)c1cc2c(cc1C(F)(F)F)NC(Cc1ccccc1)NS2(=O)=O (configuration not stated) [BENDROFLUMETHIAZIDE] | 69.6
4 | CCOC(=O)[C@H](CCc1ccccc1)N[C@@H](C)C(=O)N1CC2(C[C@H]1C(=O)O)SCCS2 [SPIRAPRIL HYDROCHLORIDE] | 47.1
5 | O=C(O)c1ccccc1S [THIOSALICYLIC ACID] | > 1000
6 | CC1(C)OC(=O)NC1=O [DIMETHADIONE] | > 1000
7 | CN1CCc2cccc3c2[C@H]1Cc1ccc(O)c(O)c1-3 (stereo in doubt; form 1) [APOMORPHINE] | 211
8 | Cc1cc2c(cc(C(=O)O)n2Cc2ccc(Cl)c(Cl)c2)o1 | 15.9
9 | CC[C@@H](Nc1c(Nc2cccc(C(=O)N(C)C)c2O)c(=O)c1=O)c1ccc(C)o1 [NAVARIXIN ANHYDROUS] | < 10
10 | CN1CCC[C@H]1c1cccnc1 [NICOTINE] | > 1000
11 | Cc1cccc(C)c1CNc1cc(C(=O)NCCO)cn2c(C)c(C)nc12 [LINAPRAZAN] | < 10
12 | CC(=O)NS(=O)(=O)c1ccc(NC(=O)c2ccccc2C(=O)O)cc1 | > 1000
13 | CC1=C(/C=C/C(C)=C/C=C/C(C)=C/C(=O)O)C(C)(C)CCC1 [TRETINOIN] | < 10
14 | CCN1CCC[C@H]1CNC(=O)c1c(OC)ccc(Br)c1OC [REMOXIPRIDE] | < 10
15 | CC(C(=O)O)c1ccc2oc(-c3ccc(Cl)cc3)nc2c1 (configuration not stated) [BENOXAPROFEN] | 104
16 | O=C(O)c1cc2cc(O)ccc2n1Cc1ccc(Cl)c(Cl)c1 | 49.8
17 | CC(c1cc2ccccc2s1)N(O)C(N)=O (configuration not stated) [ZILEUTON] | > 751
18 | CN1CCN(CC(=O)N2c3ccccc3C(=O)Nc3cccnc32)CC1 [PIRENZEPINE] | > 1000
19 | O=C1CC[C@@]2(O)[C@H]3Cc4ccc(O)c5c4[C@@]2(CCN3CC2CC2)[C@H]1O5 [NALTREXONE] | > 1000
20 | CCN(CC)CCNC(=O)c1ccc(NC(C)=O)cc1 [ACECAINIDE] | > 1000
21 | Bc1ccc(S(=O)(=O)N2CCN(C(=O)N3CCN(c4cc(C)ncn4)CC3)CC2)cc1 | < 10
22 | Cc1ccc(OC(C)(C)[C@H]2OC[C@@H](C/C=C\CCC(=O)O)[C@@H](c3cccnc3)O2)c([N+](=O)[O-])c1 | < 10
23 | CCCc1c(OCCCCc2nnn[nH]2)ccc(C(C)=O)c1O [TOMELUKAST] | < 10.7

Row | Molecule | IC50 [µM]
24 | C[C@H]1C[C@@H]2[C@H]([C@@H](O)C[C@@]3(C)[C@H]2CC[C@]3(O)C(=O)CO)[C@@]2(C)C=CC(=O)C=C12 [METHYLPREDNISOLONE] | 33
25 | CC(C)COCC(CN(Cc1ccccc1)c1ccccc1)N1CCCC1 (configuration not stated) [BEPRIDIL] | < 16.5
26 | COc1cccc(N2C(N)=NC(N)=NC23CCCCC3)c1 | > 1000
27 | CN[C@H]1CC[C@@H](c2ccc(Cl)c(Cl)c2)c2ccccc21 [SERTRALINE] | 29.3
28 | Clc1ccc(COC(Cn2ccnc2)c2ccc(Cl)cc2Cl)cc1 (configuration not stated) [ECONAZOLE] | < 10
29 | CCCCN(CCCC)CCCOC(=O)c1ccc(N)cc1 [BUTACAINE] | 488
30 | CCCC(C(=O)OCCN(CC)CC)(c1ccccc1)c1ccccc1 [PROADIFEN] | < 13.2
31 | CCCc1c(OCCCOc2ccc3c(=O)cc(CCC(=O)O)oc3c2CCC)ccc(C(C)=O)c1O | < 10
32 | CC1=C(C/C=C(\C)CCCC(C)CCCC(C)CCCC(C)C)C(=O)c2ccccc2C1=O (configuration not stated) | > 1000
33 | NC(=O)c1ccc([N+](=O)[O-])cc1Cl [AKLOMIDE] | > 1000
34 | COc1cc(CNC(=O)CCCC/C=C/C(C)C)ccc1O [CAPSAICIN] | < 10
35 | O=C(NO)C1(CS(=O)(=O)c2ccc(Oc3ccc(Cl)cc3)cc2)CCOCC1 [CTS-1027] | 23.4
36 | O=C(O)CCCCC1CCSS1 (stereo not drawn) [LIPOIC ACID, ALPHA] | > 1000
37 | CN1[C@@H]2C[C@@H](OC(=O)[C@H](CO)c3ccccc3)C[C@H]1[C@@H]1O[C@@H]12 [SCOPOLAMINE] | > 1000
38 | COc1cc(Nc2ncc(F)c(Nc3ccc4c(n3)NC(=O)C(C)(C)O4)n2)cc(OC)c1OC [R-406] | 197
39 | O=CN(O)C(CCCc1ncccn1)CS(=O)(=O)N1CCC(Oc2ccc(Cl)cn2)CC1 (configuration not stated) | < 10
40 | CC(NC(C)(C)C)C(=O)c1cccc(Cl)c1 (configuration not stated) [BUPROPION] | > 1000
41 | CS(=O)(=O)CCNCc1ccc(-c2ccc3ncnc(Nc4ccc(OCc5cccc(F)c5)c(Cl)c4)c3c2)o1 [LAPATINIB] | < 10
42 | Cc1cc2cc3c(C)cc(=O)oc3c(C)c2o1 [TRIOXSALEN] | > 525
43 | CCN(CC)C(=O)c1ccc(C(=C2CCNCC2)c2ccccc2)cc1 | 106
44 | CCCCc1cc2ccccc2c(OCCN(C)C)n1 [DIMETHISOQUIN] | 68.7
45 | Cc1ccc2c(c1)c(-c1ccnc3c(Cl)cccc13)c(C)n2CC(=O)O | < 10
46 | CCS[C@]1(SC)CC[C@H]2[C@@H]3CCC4=CC(=O)C=C[C@]4(C)[C@@]3(F)[C@@H](O)C[C@@]21C | < 10

Row | Molecule | IC50 [µM]
47 | N#Cc1ccccc1OCC(O)CNCCNC(=O)Cc1ccc(O)cc1 (configuration not stated) [EPANOLOL] | 244
48 | NS(=O)(=O)c1ccc(-c2ccc(OC[C@H](O)CCc3cccnc3)cc2)s1 | > 1000
49 | Cc1ccc(/C(=C\CN2CCCC2)c2ccccn2)cc1 [TRIPROLIDINE] | 291
50 | CN(C)c1ncnc2c1ncn2C1OC(CO)C(N)C1O (configuration not stated) | > 1000
51 | Nc1ccc(C(=O)NCC(=O)O)cc1 [AMINOHIPPURIC ACID] | > 1000
52 | CC(Cc1ccc2c(c1)OCO2)NCC(O)c1ccc(O)c(O)c1 (configuration not stated) [PROTOKYLOL HYDROCHLORIDE] | > 982
53 | COc1ccc(Cc2nccc3cc(OC)c(OC)cc23)cc1OC [PAPAVERINE] | < 10
54 | CCN(CC)Cc1cc(Nc2ccnc3cc(Cl)ccc23)ccc1O [AMODIAQUINE] | 77.8
55 | CCN(CC)CCNC(=O)c1c(C)[nH]c(/C=C2\C(=O)Nc3ccc(F)cc32)c1C [SUNITINIB] | 45.8
56 | CCCc1c(OCC(O)COc2ccc3c(=O)cc(C(=O)O)oc3c2CCC)ccc(C(C)=O)c1O (configuration not stated) [FPL-55712] | < 10
57 | CC(=O)Nc1cc([As](=O)(O)O)ccc1O [ACETARSONE] | > 1000
58 | CCCNCC(O)COc1ccccc1C(=O)CCc1ccccc1 (configuration not stated) [PROPAFENONE] | 53.7
59 | Cc1ccc(C(=O)Nc2ccc(S(=O)(=O)O)c3cc(S(=O)(=O)O)cc(S(=O)(=O)O)c23)cc1NC(=O)c1cccc(NC(=O)Nc2cccc(C(=O)Nc3cc(C(=O)Nc4ccc(S(=O)(=O)O)c5cc(S(=O)(=O)O)cc(S(=O)(=O)O)c45)ccc3C)c2)c1 [SURAMIN] | 107
60 | Cc1c(C(=O)NN2CCCCC2)nn(-c2ccc(Cl)cc2Cl)c1-c1ccc(Cl)cc1 [RIMONABANT] | < 10
61 | CCOC(=O)[C@H](CCc1ccccc1)N[C@@H](C)C(=O)N1Cc2ccccc2C[C@H]1C(=O)O | 15.5
62 | C[C@H]1C[C@@](O)(c2csc(Sc3ccc4c(c3)CC(=O)N4C)c2)CCO1 | < 10.9
63 | CC1=C(/C=C/C(C)=C/C=C/C(C)=C/C=C/C=C(C)/C=C/C=C(C)/C=C/C2=C(C)CCCC2(C)C)C(C)(C)CCC1 [BETA CAROTENE] | < 10
64 | CC(=O)Nc1c(I)c(C(=O)N[C@H]2C(O)O[C@H](CO)[C@@H](O)[C@@H]2O)c(I)c(N(C)C(C)=O)c1I (some centres not stated) [METRIZAMIDE] | > 1000
65 | NNCCc1ccccc1 [PHENELZINE] | > 897
66 | Cc1n[nH]c(C)c1Cc1sc2c(c1C(=O)N1C[C@H](O)CO1)c(=O)n(C)c(=O)n2CC(C)C | 248
67 | O=C(/C=C/c1c(C(=O)O)[nH]c2cc(Cl)cc(Cl)c12)Nc1ccccc1 | < 10
68 | COC(=O)C1=C(C)NC(C)=C(C(=O)OC)C1c1ccccc1[N+](=O)[O-] [NIFEDIPINE] | 18.7
69 | CCCc1ncc(-c2ccnc(Nc3ccc(S(=O)(=O)NCCOC)cc3)n2)n1CC | < 10

Row | Molecule | IC50 [µM]
70 | CC[C@H]1OC(=O)[C@H](C)[C@H](O[C@H]2C[C@@](C)(OC)[C@@H](O)[C@H](C)O2)[C@H](C)[C@@H](O[C@@H]2O[C@H](C)C[C@H](N(C)C)[C@H]2O)[C@](C)(O)C[C@@H](C)CN(C)[C@H](C)[C@H](O)[C@]1(C)O | > 1000
71 | CNC(=O)Oc1ccc2c(c1)C1(C)CCN(C)C1N2C (configuration not stated) | > 1000
72 | CC(Oc1ccccc1)C(=O)N[C@@H]1C(=O)N2[C@@H]1SC(C)(C)[C@@H]2C(=O)O (some centres not stated) [PHENETHICILLIN] | < 10
73 | CCOC(N)=O | > 1000
74 | CC[C@@H](C(N)=O)N1CCCC1=O | > 1000
75 | CC(C)(C)NC[C@H](O)COc1nsnc1N1CCOCC1 [TIMOLOL] | > 1000
76 | CC1(C)O[C@@H]2C[C@H]3[C@@H]4C[C@H](F)C5=CC(=O)CC[C@]5(C)[C@H]4[C@@H](O)C[C@]3(C)[C@]2(C(=O)CO)O1 [FLURANDRENOLIDE] | 71.2
77 | Cc1nnc(NS(=O)(=O)c2ccc(N)cc2)s1 [SULFAMETHIZOLE] | > 1000
78 | O=c1[nH]cc(F)c(=O)[nH]1 [FLUOROURACIL] | > 1000
79 | COc1cc(Cc2cnc(N)nc2N)cc(OC)c1OC [TRIMETHOPRIM] | 833
80 | CCc1ccc(CCOc2ccc(CC3SC(=O)NC3=O)cc2)nc1 (configuration not stated) [PIOGLITAZONE] | 0.262
81 | C[C@@H]1C[C@H]2[C@@H]3C[C@H](F)C4=CC(=O)C=C[C@]4(C)[C@@]3(F)[C@@H](O)C[C@]2(C)[C@@]1(O)C(=O)CO [FLUMETHASONE] | 68.5
82 | Cc1cc(=O)n(-c2ccccc2)n1C [ANTIPYRINE] | > 1000
83 | O=C(O)c1c(Cl)c(Cl)c(Cl)c(Cl)c1-c1c2cc(I)c(=O)c(I)c-2oc2c(I)c(O)c(I)cc12 [ROSE BENGAL SODIUM] | < 10
84 | COc1cc(C(=O)NCCCCCC(=O)O)cc(OC)c1OC [CAPOBENIC ACID] | > 1000
85 | CCCc1c2nc(C(=O)O)cc(O)c2cc2c(=O)cc(C(=O)O)oc12 | > 1000
86 | O=CN(O)C(CCCc1ncccn1)CS(=O)(=O)N1CCN(c2ccc(F)cc2)CC1 (configuration not stated) | < 16.4
87 | BISMUTH SUBSALICYLATE | > 1000
88 | Nc1ccc(S(=O)(=O)Nc2ncccn2)cc1 [SULFADIAZINE] | > 1000
89 | Cc1cc(Nc2nc(NCc3cc(-c4ccccn4)no3)ncc2Cl)[nH]n1 | < 10
90 | Cc1cc(CCC(=O)O)cc(C)c1-c1nc2ccc(-c3nnc(Nc4cccc(Cl)c4)o3)cc2[nH]1 | < 10
91 | CC(CNC1CCCCC1)OC(=O)c1ccccc1 (configuration not stated) [HEXYLCAINE HYDROCHLORIDE] | 506
92 | CCCNC(C)(C)COC(=O)c1ccccc1 [MEPRYLCAINE] | > 1000

From ChEMBL document CHEMBL4017441, “Mitigating the inhibition of human bile salt export pump by drugs: opportunities provided by physicochemical property modulation, in silico modeling, and structural modification” (Drug Metab Dispos, 2012)
